The record followed here is patent US20230114241A1, “METHODS OF TREATING EPILEPSY USING THE SAME” (Trevena, Inc., priority 2019, published 2023).

Chain of human sphingosine-1-phosphate receptor 1 (S1P1) (P21453 whole entry): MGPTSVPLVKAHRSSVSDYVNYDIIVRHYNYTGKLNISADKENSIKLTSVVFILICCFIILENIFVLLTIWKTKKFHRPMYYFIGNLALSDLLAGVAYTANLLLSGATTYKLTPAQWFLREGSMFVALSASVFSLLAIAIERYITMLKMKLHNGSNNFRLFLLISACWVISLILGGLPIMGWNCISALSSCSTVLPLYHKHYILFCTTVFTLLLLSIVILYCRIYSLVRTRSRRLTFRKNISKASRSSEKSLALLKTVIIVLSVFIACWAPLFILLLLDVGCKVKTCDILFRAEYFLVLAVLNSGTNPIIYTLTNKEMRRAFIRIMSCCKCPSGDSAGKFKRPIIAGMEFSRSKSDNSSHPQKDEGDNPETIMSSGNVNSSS

The experiment concerns the target human sphingosine-1-phosphate receptor 1 (S1P1) (Homo sapiens, UniProt P21453). Put plainly: Inhibition of cAMP production (HTRF cAMP HiRange), S1P1 CHO-K1 cells. In kind it is cell-based. The conditions noted are these: inhibition of cAMP production; potency; read-out: hS1P1 CAMP pEC50 (converted). The gist of the method: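 Intracellular cAMP changes read by TR-FRET (HTRF HiRange, 1 h room temperature) after 30 min compound exposure at 37 °C. Cells: overnight-plated CHO-K1 stably expressing tagged human S1P1 with EA-β-arrestin2. Responses normalized to fingolimod.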
(Cyclic AMP is a second messenger, typically raised through Gs and lowered through Gi signalling.)
As for `COc1cccc(-c2nc(-c3ccc4c(c3)nnn4C(C)C)no2)c1` [Compound 299, 3-(1-isopropylbenzo-triazol-5-yl)-5-(3-methoxyphenyl)-1,2,4-oxadiazole], the EC50 is more than 316 nM. With `CCC1(CC)CC(=O)c2cc(-c3nc(-c4ccc(OC)nc4)no3)ccc2O1` [Compound 301, 2,2-diethyl-6-[3-(6-methoxy-3-pyridyl)-1,2,4-oxadiazol-5-yl]chroman-4-one] the figure was more than 316 nM; with `N#Cc1cc(-c2nc(-c3ccc4c(c3)CCC(=O)N4)no2)ccc1NCC1CC1` [Compound 302, 2-((cyclopropyl-methyl)amino)-5-(3-(2-oxo-1,2,3,4-tetrahydroquinolin-6-yl)-1,2,4-oxadiazol-5-yl)benzonitrile], less than 316 nM.

In the case of `CCC1(CC)CC(=O)c2cc(-c3nc(-c4cnccc4OC)no3)ccc2O1` [Compound 303, 2,2-diethyl-6-(3-(4-methoxypyridin-3-yl)-1,2,4-oxadiazol-5-yl)chroman-4-one], the EC50 is more than 316 nM. With `CC(C)n1nnc2cc(-c3noc(-c4ccccc4F)n3)ccc21` [Compound 307, 5-(2-fluorophenyl)-3-(1-isopropyl-1H-benzo[d][1,2,3]triazol-5-yl)-1,2,4-oxadiazole] the figure was less than 316 nM; with `Cc1ccccc1-c1noc(-c2ccc3nnn(C(C)C)c3c2)n1` [Compound 308, 6-[3-(2-methylphenyl)-1,2,4-oxadiazol-5-yl]-1-(propan-2-yl)-1H-1,2,3-benzotriazole], more than 316 nM; with `CCC1(CC)CC(=O)c2cc(-c3nc(-c4cccnc4)ns3)ccc2O1` [Compound 309, 2,2-diethyl-6-(3-(pyridin-3-yl)-1,2,4-thiadiazol-5-yl)chroman-4-one], more than 316 nM.

As for `CCC1(CC)CC(=O)c2cc(-c3nc(-c4cncc(O)c4)no3)ccc2O1` [Compound 310, 2,2-diethyl-6-[3-(5-hydroxy-3-pyridyl)-1,2,4-oxadiazol-5-yl]chroman-4-one], the EC50 is less than 316 nM. On to `CCC1(CC)CC(=O)c2cc(-c3nc(-c4ccncc4O)no3)ccc2O1` [Compound 312, 2,2-diethyl-6-(3-(3-hydroxypyridin-4-yl)-1,2,4-oxadiazol-5-yl)chroman-4-one], for which the EC50 was more than 316 nM. In the case of `CCC1(CC)CC(=O)c2cc(-c3nc(-c4ccncc4C(F)(F)F)no3)ccc2O1` [Compound 313, 2,2-diethyl-6-(3-(3-(trifluoromethyl)pyridin-4-yl)-1,2,4-oxadiazol-5-yl)chroman-4-one] it was less than 316 nM; in that of `CCC1(CC)CC(=O)c2cc(-c3nc(-c4ccnc(C(F)(F)F)c4)no3)ccc2O1` [Compound 314, 2,2-diethyl-6-(3-(2-(trifluoromethyl)pyridin-4-yl)-1,2,4-oxadiazol-5-yl)chroman-4-one], more than 316 nM. In the case of `CCC1(CC)CC(=O)c2cc(-c3nc(-c4ccnc(C)c4)no3)ccc2O1` [Compound 315, 2,2-diethyl-6-(3-(2-methylpyridin-4-yl)-1,2,4-oxadiazol-5-yl)chroman-4-one] it was less than 316 nM; in that of `CC(=O)Nc1ccc(-c2noc(-c3ccc(NC(C)C)c(C#N)c3)n2)cc1` [Compound 316, N-(4-(5-(3-cyano-4-(isopropylamino)phenyl)-1,2,4-oxadiazol-3-yl)phenyl)acetamide], less than 316 nM; in that of `CC(C)n1ccc2cc(-c3nc(-c4ccccc4Cl)no3)ccc21` [Compound 320, 3-(2-chlorophenyl)-5-(1-isopropyl-1H-indol-5-yl)-1,2,4-oxadiazole], less than 316 nM. In the case of `CC(C)n1ccc2cc(-c3nc(-c4ccccc4OC(F)(F)F)no3)ccc21` [Compound 321, 5-(1-isopropyl-1H-indol-5-yl)-3-(2-(trifluoro-methoxy)phenyl)-1,2,4-oxadiazole] it was more than 316 nM. As to `CC(C)n1ccc2cc(-c3nc(-c4ccccc4Br)no3)ccc21` [Compound 322, 3-(2-bromophenyl)-5-(1-isopropyl-1H-indol-5-yl)-1,2,4-oxadiazole], the EC50 was less than 316 nM. As to `CC(C)n1ccc2cc(-c3nc(-c4ccccc4O)no3)ccc21` [Compound 323, 2-(5-(1-isopropyl-1H-indol-5-yl)-1,2,4-oxadiazol-3-yl)phenol], the EC50 is more than 316 nM. With `CC(C)Oc1ccccc1-c1noc(-c2ccc3c(ccn3C(C)C)c2)n1` [Compound 324, 3-(2-isopropoxyphenyl)-5-(1-isopropyl-1H-indol-5-yl)-1,2,4-oxadiazole] the figure was more than 316 nM.

Regarding `COc1cccc(OC)c1-c1noc(-c2ccc3c(ccn3C(C)C)c2)n1` [Compound 325, 3-(2,6-dimethoxy-phenyl)-5-(1-isopropyl-indol-5-yl)-1,2,4-oxadiazole], the EC50 was more than 316 nM. In the case of `CC(C)n1ccc2cc(-c3nc(-c4cccc5c4OCO5)no3)ccc21` [Compound 326, 3-(benzo[d][1,3]dioxol-4-yl)-5-(1-isopropyl-1H-indol-5-yl)-1,2,4-oxadiazole] it was more than 316 nM. In the case of `Cc1ccccc1-c1noc(-c2ccc3c(cnn3C(C)C)c2)n1` [Compound 329, 5-(1-isopropyl-1H-indazol-5-yl)-3-(o-tolyl)-1,2,4-oxadiazole] it was less than 316 nM; in that of `CC(C)n1ncc2cc(-c3nc(-c4ccccc4Cl)no3)ccc21` [Compound 330, 3-(2-chlorophenyl)-5-(1-isopropyl-1H-indazol-5-yl)-1,2,4-oxadiazole], less than 316 nM; in that of `CC(C)n1ncc2cc(-c3nc(-c4ccccc4OC(F)(F)F)no3)ccc21` [Compound 331, 5-(1-isopropyl-1H-indazol-5-yl)-3-(2-(trifluoro-methoxy)phenyl)-1,2,4-oxadiazole], less than 316 nM. In the case of `CC(C)n1ncc2cc(-c3nc(-c4ccccc4Br)no3)ccc21` [Compound 332, 3-(2-bromophenyl)-5-(1-isopropyl-1H-indazol-5-yl)-1,2,4-oxadiazole] it was less than 316 nM.

`CC(C)n1ncc2cc(-c3nc(-c4ccccc4O)no3)ccc21` [Compound 333, 2-(5-(1-isopropyl-1H-indazol-5-yl)-1,2,4-oxadiazol-3-yl)phenol]: the EC50 was less than 316 nM. With `CC(C)Oc1ccccc1-c1noc(-c2ccc3c(cnn3C(C)C)c2)n1` [Compound 334, 3-(2-isopropoxy-phenyl)-5-(1-isopropyl-1H-indazol-5-yl)-1,2,4-oxadiazole] the figure was more than 316 nM.

`COc1cccc(OC)c1-c1noc(-c2ccc3c(cnn3C(C)C)c2)n1` [Compound 335, 3-(2,6-dimethoxy-phenyl)-5-(1-isopropylindazol-5-yl)-1,2,4-oxadiazole]: the EC50 was more than 316 nM. `CC(C)n1ncc2cc(-c3nc(-c4cccc5c4OCO5)no3)ccc21` [Compound 336, 3-(benzo[d][1,3]dioxol-4-yl)-5-(1-isopropyl-1H-indazol-5-yl)-1,2,4-oxadiazole]: the EC50 was less than 316 nM. With `CC(C)n1ncc2cc(-c3nc(-c4cccc5c4OCCC5)no3)ccc21` [Compound 337, 3-chroman-8-yl-5-(1-isopropylindazol-5-yl)-1,2,4-oxadiazole] the figure was less than 316 nM; with `COc1cccc(F)c1-c1noc(-c2ccc3c(cnn3C(C)C)c2)n1` [Compound 338, 3-(2-fluoro-6-methoxy-phenyl)-5-(1-isopropyl-indazol-5-yl)-1,2,4-oxadiazole], more than 316 nM; with `COC(=O)NS(=O)(=O)n1c(=O)oc2cc(-c3nnc(-c4ccccc4OC)o3)ccc21` [Compound 342, methyl N-({6-[5-(2-methoxyphenyl)-1,3,4-oxadiazol-2-yl]-2-oxo-2,3-dihydro-1,3-benzoxazol-3-yl}sulfonyl)carbamate], more than 316 nM. In the case of `N#Cc1cc(-c2nc(-c3ccc4c(c3)CCC(=O)N4)no2)ccc1NCCF` [Compound 343, 2-[(2-fluoroethyl)amino]-5-[3-(2-oxo-1,2,3,4-tetrahydroquinolin-6-yl)-1,2,4-oxadiazol-5-yl]benzonitrile] it was less than 316 nM; in that of `N#Cc1cc(-c2nc(-c3ccc4c(c3)CCC(=O)N4)no2)ccc1NCC(F)F` [Compound 344, 2-[(2,2-difluoroethyl)amino]-5-[3-(2-oxo-1,2,3,4-tetrahydroquinolin-6-yl)-1,2,4-oxadiazol-5-yl]benzonitrile], less than 316 nM. In the case of `N#Cc1cc(-c2nc(-c3ccc4c(c3)CCC(=O)N4)no2)ccc1N` [Compound 345, 2-amino-5-[3-(2-oxo-1,2,3,4-tetrahydro-quinolin-6-yl)-1,2,4-oxadiazol-5-yl]benzonitrile] it was more than 316 nM; in that of `C=C(F)CNc1ccc(-c2nc(-c3ccc4c(c3)CCC(=O)N4)no2)cc1C#N` [Compound 346, 2-[(2-fluoroprop-2-en-1-yl)amino]-5-[3-(2-oxo-1,2,3,4-tetrahydro-quinolin-6-yl)-1,2,4-oxadiazol-5-yl]benzonilrile], less than 316 nM.

Take `CC(F)(F)CNc1ccc(-c2nc(-c3ccc4c(c3)CCC(=O)N4)no2)cc1C#N` [Compound 347, 2-[(2,2-difluoropropyl)amino]-5-[3-(2-oxo-1,2,3,4-tetrahydro-quinolin-6-yl)-1,2,4-oxadiazol-5-yl]benzonitrile]: the EC50 was less than 316 nM. With `CC(F)CNc1ccc(-c2nc(-c3ccc4c(c3)CCC(=O)N4)no2)cc1C#N` (stereo not drawn) [Compound 348, 2-[(2-fluoropropyl)amino]-5-[3-(2-oxo-1,2,3,4-tetrahydroquinolin-6-yl)-1,2,4-oxadiazol-5-yl]benzonitrile] the figure was less than 316 nM. Regarding `COc1ccccc1-c1nnc(-c2ccc3[nH]c(=O)oc3c2)o1` [Compound 349, 6-[5-(2-methoxyphenyl)-1,3,4-oxadiazol-2-yl]-2,3-dihydro-1,3-benzoxazol-2-one], the EC50 is less than 316 nM. In the case of `COc1ccccc1-c1nnc(-c2ccc3c(c2)oc(=O)n3C)o1` [Compound 350, 6-[5-(2-methoxyphenyl)-1,3,4-oxadiazol-2-yl]-3-methyl-2,3-dihydro-1,3-benzoxazol-2-one] it was more than 316 nM.
